This note sets out measurements from US8461175B2, “1-pyrazolo[4,3-c]isoquinoline derivatives, preparation thereof and therapeutic use thereof” (Sanofi-Aventis, priority 2009, dated 2013).

This assay relates to HeLa Cells (ATCC CCL-2). Kind of assay: Determination of IC50 for HeLa cells, proliferation by 14C-thymidine incorporation. The assay is classed as cell-based. As to conditions: total treatment 96 h. The procedure:
Determination of IC50 for HeLa Cells (ATCC CCL-2)
This test is carried out using adherent tumour cell lines. Their proliferation is measured via the amount of ^14C-thymidine incorporated within the cells. These cells are placed in 96-well Cytostar plates with the culture medium and are incubated for 4 h at 37° C.-5% CO2. The products under test are then added and the plates are replaced in the incubator. ^14C-thymidine is added to the medium after 72 h of treatment and the cells are then incubated for 24 h. The incorporation of ^14C-thymidine is measured using a MicroBeta reader (Perkin Elmer) after these 24 h of “pulse”. The total time of treatment of the cells with the product under test is 96 h.
For each assay, the plates are prepared at the cell concentrations employed. The products are tested at 10 concentrations in duplicate. The first concentration is usually 10 μM, but it may vary, as may the degree of dilution, depending on the activity level of the products. The serial dilutions are made in pure DMSO and then each concentration is diluted in the culture medium. All of the products are tested in two independent assays.
• Dulbecco (Gibco 11960-044) • Inactivated foetal calf serum (FCS) (Gibco 10500-056) • Penicillin-Streptomycin-Glutamine (PSG) (Gibco 10378-016) • 96-well Cytostar plate (Amersham RPNQ0162) • DMSO (Sigma D2650) • ^14C-Thymidine (NEN NEC-568)
(In general: Uptake of a labelled nucleoside into DNA is a usual measure of proliferation.)

As a reminder, the IC50 is the concentration that inhibits the measured activity by half. Low values mean greater potency in that assay, high ones weaker potency in that assay.

`NS(=O)(=O)N1CCC(Nc2n[nH]c3c2nc(-c2c(F)cccc2F)c2cc(C=NO)ccc23)CC1` (mixture of isomers) [Example 23, 4-({5-(2,6-difluorophenyl)-7-[(E/Z)-(hydroxyimino)methyl]-1H-pyrazolo[4,3-c]isoquinolin-3-yl}amino)piperidine-1-sulphonamide] yielded an IC50 of 126 nM.
In turn, `CS(=O)(=O)N1CCC(Nc2n[nH]c3c2nc(-c2c(F)cccc2F)c2cc(C(N)=O)ccc23)CC1` [Example 1, 5-(2,6-difluorophenyl)-3-{[1-(methylsulphonyl)piperidin-4-yl]amino}-1H-pyrazolo[4,3-c]isoquinoline-7-carboxamide] yielded an IC50 (Homo sapiens) of 259 nM. This lies in the sub-micromolar range.
Take `CS(=O)(=O)N1CCC(Nc2n[nH]c3c2nc(-c2c(F)cccc2F)c2cc(C=NO)ccc23)CC1` [Example 2, 5-(2,6-difluorophenyl)-3-{[1-(methylsulphonyl)piperidin-4-yl]amino}-1H-pyrazolo[4,3-c]isoquinoline-7-carbaldehyde oxime]: 100 nM corresponded to half-maximal inhibition (Homo sapiens) (IC50).
Molecule `CS(=O)(=O)N1CCC(Nc2n[nH]c3c2nc(-c2c(F)cccc2F)c2cc(CO)ccc23)CC1` [Example 3] came in with an IC50 of 248 nM.
`NC(=O)c1ccc2c(c1)c(-c1c(F)cccc1F)nc1c(NC3CCN(S(=O)(=O)C(F)(F)F)CC3)n[nH]c12` [Example 4, 5-(2,6-difluorophenyl)-3-{[1-(trifluoromethanesulphonyl)piperidin-4-yl]amino}-1H-pyrazolo[4,3-c]isoquinoline-7-carboxamide] yielded an IC50 (Homo sapiens) of 789 nM.
Turning to `C=Cc1ccc2c(c1)c(-c1c(F)cccc1F)nc1c(NC3CCN(S(C)(=O)=O)CC3)n[nH]c12` [Example 5, 5-(2,6-difluorophenyl)-3-{[1-(methylsulphonyl)piperidin-4-yl]amino}-7-vinyl-1H-pyrazolo[4,3-c]isoquinoline], where the note is “Homo sapiens”, the IC50 is 2580 nM.
The same measure, in the same setting: the figure for `CS(=O)(=O)N1CCC(Nc2n[nH]c3c2nc(-c2c(F)cccc2F)c2cc(F)ccc23)CC1` [Example 6, 5-(2,6-difluorophenyl)-7-fluoro-3-{[1-(methylsulphonyl)piperidin-4-yl]amino}-1H-pyrazolo[4,3-c]isoquinoline] is 890 nM; for `C#Cc1ccc2c(c1)c(-c1c(F)cccc1F)nc1c(NC3CCN(S(C)(=O)=O)CC3)n[nH]c12` [Example 7, 5-(2,6-difluorophenyl)-3-{[1-(methylsulphonyl)piperidin-4-yl]amino}-7-ethynyl-1H-pyrazolo[4,3-c]isoquinoline] it is 1500 nM; for `COC(=O)c1ccc2c(c1)c(-c1c(F)cccc1F)nc1c(NC3CCN(S(C)(=O)=O)CC3)n[nH]c12` [Example 8, Methyl 5-(2,6-difluorophenyl)-3-{[1-(methylsulphonyl)piperidin-4-yl]amino}-1H-pyrazolo[4,3-c]isoquinoline-7-carboxylate] it is 7280 nM.
In the case of `CS(=O)(=O)N1CCC(Nc2n[nH]c3c2nc(-c2c(F)cccc2F)c2cc(C(N)=S)ccc23)CC1` [Example 9, 5-(2,6-difluorophenyl)-3-{[1-(methylsulphonyl)piperidin-4-yl]amino}-1H-pyrazolo[4,3-c]isoquinoline-7-carbothioamide], 597 nM corresponded to half-maximal inhibition (Homo sapiens) (IC50).
Turning to `CS(=O)(=O)N1CCC(Nc2n[nH]c3c2nc(-c2c(F)cccc2F)c2ccccc23)CC1` [Example 10], the IC50 turned out to be 2040 nM.
`N#Cc1ccc2c(c1)c(-c1c(F)cccc1F)nc1c(NC3CCN(S(=O)(=O)C4CC4)CC3)n[nH]c12` [Example 11, 5-(2,6-difluorophenyl)-3-{[1-(cyclopropylsulphonyl)piperidin-4-yl]amino}-1H-pyrazolo[4,3-c]isoquinoline-7-carbonitrile] displayed an IC50 (Homo sapiens) of 909 nM.
Molecule `CS(=O)(=O)N1CCC(Nc2n[nH]c3c2nc(-c2c(F)cccc2F)c2cc(C#N)ccc23)CC1` [Example 12, 5-(2,6-difluorophenyl)-3-{[1-(methylsulphonyl)piperidin-4-yl]amino}-1H-pyrazolo[4,3-c]isoquinoline-7-carbonitrile] had an IC50 (Homo sapiens) of 899 nM.
Same read-out and setting: as for `CCS(=O)(=O)N1CCC(Nc2n[nH]c3c2nc(-c2c(F)cccc2F)c2cc(C#N)ccc23)CC1` [Example 13, 5-(2,6-difluorophenyl)-3-([1-(ethylsulphonyl)piperidin-4-yl]amino}-1H-pyrazolo[4,3-c]isoquinoline-7-carbonitrile], the figure is 954 nM.
Regarding `NC(=O)c1ccc2c(c1)c(-c1c(F)cccc1F)nc1c(NC3CCN(S(=O)(=O)C4CC4)CC3)n[nH]c12` [Example 14, 5-(2,6-difluorophenyl)-3-{[1-(cyclopropylsulphonyl)piperidin-4-yl]amino}-1H-pyrazolo[4,3-c]isoquinoline-7-carboxamide], where the note is “Homo sapiens”, the IC50 came to 413 nM.
Molecule `CS(=O)(=O)N1CCC(Nc2n[nH]c3c2nc(-c2c(F)cccc2F)c2cc(C=O)ccc23)CC1` [Example 15, 5-(2,6-difluorophenyl)-3-{[1-(methylsulphonyl)piperidin-4-yl]amino}-1H-pyrazolo[4,3-c]isoquinoline-7-carbaldehyde] yielded an IC50 (Homo sapiens) of 488 nM.
Still for that read-out and setting: the figure for `CS(=O)(=O)N1CCC(Nc2n[nH]c3c2nc(-c2c(F)cccc2F)c2cc(C(=N)NO)ccc23)CC1` [Example 16, 5-(2,6-difluorophenyl)-N-hydroxy-3-{[1-(methylsulphonyl)piperidin-4-yl]amino}-1H-pyrazolo[4,3-c]isoquinoline-7-carboximidamide] is 2350 nM.
As to `CS(=O)(=O)N1CCC(Nc2n[nH]c3c2nc(-c2c(F)cccc2F)c2cc(CF)ccc23)CC1` [Example 17], the IC50 was 263 nM.
In the case of `CCS(=O)(=O)N1CCC(Nc2n[nH]c3c2nc(-c2c(F)cccc2F)c2cc(C(N)=O)ccc23)CC1` [Example 18, 5-(2,6-difluorophenyl)-3-{[1-(ethylsulphonyl)piperidin-4-yl]amino}-1H-pyrazolo[4,3-c]isoquinolin-7-carboxamide], half-maximal inhibition (Homo sapiens) (IC50) required 554 nM. This counts as sub-micromolar.
In turn, `CCS(=O)(=O)N1CCC(Nc2n[nH]c3c2nc(-c2c(F)cccc2F)c2cc(C=O)ccc23)CC1` [Example 19, 5-(2,6-difluorophenyl)-3-{[1-(ethylsulphonyl)piperidin-4-yl]amino}-1H-pyrazolo[4,3-c]isoquinoline-7-carbaldehyde] gave an IC50 (Homo sapiens) of 451 nM. The IC50 values of the last two molecules are within 1.5-fold of each other.
In the case of `CCS(=O)(=O)N1CCC(Nc2n[nH]c3c2nc(-c2c(F)cccc2F)c2cc(C=NO)ccc23)CC1` [Example 20, 5-(2,6-difluorophenyl)-3-{[1-(ethylsulphonyl)piperidin-4-yl]amino}-1H-pyrazolo[4,3-c]isoquinoline-7-carbaldehyde oxime], for the setting “Homo sapiens”, the IC50 was 138 nM.
The molecule `CCS(=O)(=O)N1CCC(Nc2n[nH]c3c2nc(-c2c(F)cccc2F)c2cc(CO)ccc23)CC1` [Example 21] yielded an IC50 of 338 nM.
As to `NC(=O)c1ccc2c(c1)c(-c1c(F)cccc1F)nc1c(NC3CCN(S(N)(=O)=O)CC3)[nH]nc12` [Example 22, 5-(2,6-difluorophenyl)-3-[(1-sulphamoylpiperidin-4-yl)amino]-2H-pyrazolo[4,3-c]isoquinoline-7-carboxamide], the IC50 (Homo sapiens) came out at 411 nM. In other words, the sub-micromolar range.
In the case of `CS(=O)(=O)N1CCC(Nc2n[nH]c3c2nc(-c2c(F)cccc2F)c2cc(-c4cn[nH]c4)ccc23)CC1` [Example 24, 5-(2,6-difluorophenyl)-N-[1-(methylsulphonyl)piperidin-4-yl]-7-(1H-pyrazol-4-yl)-1H-pyrazolo[4,3-c]isoquinolin-3-amine], the IC50 (Homo sapiens) came to 2120 nM. Against the preceding molecule, the IC50 is about 5.2-fold higher.
As to `CS(=O)(=O)N1CCC(Nc2n[nH]c3c2nc(-c2c(F)cccc2F)c2cc(-c4cn[nH]n4)ccc23)CC1` [Example 25, 5-(2,6-difluorophenyl)-N-[1-(methylsulphonyl)piperidin-4-yl]-7-(2H-1,2,3-triazol-4-yl)-1H-pyrazolo[4,3-c]isoquinolin-3-amine], for the setting “Homo sapiens”, the IC50 was 2280 nM.
`N#Cc1ccc2c(c1)c(-c1c(F)cccc1F)nc1c(NC3CCN(S(N)(=O)=O)CC3)n[nH]c12` [Example 26, 4-{[7-cyano-5-(2,6-difluorophenyl)-1H-pyrazolo[4,3-c]isoquinolin-3-yl]amino}piperidine-1-sulphonamide] returned an IC50 (Homo sapiens) of 1660 nM.
For `NS(=O)(=O)N1CCC(Nc2n[nH]c3c2nc(-c2c(F)cccc2F)c2cc(CO)ccc23)CC1` [Example 27, 4-{[5-(2,6-difluorophenyl)-7-(hydroxymethyl)-1H-pyrazolo[4,3-c]isoquinolin-3-yl]amino}piperidine-1-sulphonamide], the IC50 (Homo sapiens) came out at 456 nM.
For `NS(=O)(=O)N1CCC(Nc2n[nH]c3c2nc(-c2c(F)cccc2F)c2cc(F)ccc23)CC1` [Example 28, 4-{[5-(2,6-difluorophenyl)-7-fluoro-1H-pyrazolo[4,3-c]isoquinolin-3-yl]amino}piperidine-1-sulphonamide], inhibition (Homo sapiens) was half-maximal at 230 nM (IC50).
